Test systems include HOP-62; NCI-H23; KM12; Hs-578T; SF-295; SK-MEL-5; CCRF-CEM; PC-3; TK-10; RXF 393; DU-145; LOX IMVI; U-251; M14; SK-MEL-28; NCI/ADR-RES; SW-620; NCI-H522; OVCAR-5; A549.
Common to all, as to assay: inhibition of tumour cell growth, NCI panel, 48 h

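Protocol summary: plate cells (96-well), add compound at 5 concentrations, incubate 48 h, interpolate endpoints linearly. Abbreviation: GI50, concentration required for 50% inhibition of growth.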 The source made the active and inactive calls. Cut-off read from the data, not from the text of the source: active = GI50 up to about 1.1 µM and inactive = higher.

With `NC(=O)N/N=C/c1ccccc1O`, the GI50 in the test on HOP-62 was > 100 µM (inactive); with NCI-H23 it was > 100 µM (inactive); in the test on KM12, > 100 µM (inactive); with Hs-578T, 53.6 µM (inactive); in the test on SF-295, > 100 µM (inactive); with SK-MEL-5, > 100 µM (inactive). The GI50 with CCRF-CEM, in the test with PC-3, with TK-10, in the test on RXF 393, in the test on DU-145 and in the test with LOX IMVI was > 100 µM (inactive) in each case. Also, the GI50 with U-251, with M14, in the test with SK-MEL-28, in the test on NCI/ADR-RES and with SW-620 was > 100 µM (inactive) each time.
On to `C=CC(C)(C)c1c(OC)oc2ccc(OC)c(C)c2c1=O`, for which the GI50 with HOP-62 was > 100 µM (inactive); with NCI-H23, > 100 µM (inactive); in the test on KM12 it was > 100 µM (inactive); in the test with Hs-578T it was > 100 µM (inactive); in the test with SF-295, > 100 µM (inactive); in the test with SK-MEL-5, 61.7 µM (inactive). Also, the GI50 in the test with NCI-H522 was 98.2 µM (inactive); with CCRF-CEM it was > 100 µM (inactive); in the test with PC-3, 78.7 µM (inactive); with TK-10 it was > 100 µM (inactive); in the test on OVCAR-5 it was > 100 µM (inactive); in the test with DU-145, > 100 µM (inactive). Besides, the GI50 was > 100 µM (inactive) with LOX IMVI; > 100 µM (inactive) in the test on U-251; > 100 µM (inactive) in the test on M14; > 100 µM (inactive) in the test on SK-MEL-28; 96.8 µM (inactive) in the test with NCI/ADR-RES; > 100 µM (inactive) in the test on A549. Further, in the test on SW-620, the GI50 was > 100 µM (inactive).
With `CC(=O)Oc1ccc2c(c1)c1c(OC(C)=O)c3ccccc3c(OC(C)=O)c1n2Cc1cccc(C)c1`, the GI50 with HOP-62 was 25.3 µM (inactive); in the test on NCI-H23, 38.7 µM (inactive); in the test with KM12 it was 28.4 µM (inactive); in the test with Hs-578T it was 24.9 µM (inactive); in the test on SF-295, 19.5 µM (inactive); with NCI-H522 it was 19.6 µM (inactive). Also, the GI50 in the test with CCRF-CEM is 17.1 µM (inactive); in the test with PC-3 it was 52.4 µM (inactive); with TK-10, 50.8 µM (inactive); with RXF 393, 38.9 µM (inactive); in the test on OVCAR-5 it was 34.4 µM (inactive); with DU-145 it was > 100 µM (inactive). The GI50 in the test on U-251 is 22.3 µM (inactive); in the test with M14, 30.3 µM (inactive); with SK-MEL-28, > 100 µM (inactive); in the test on NCI/ADR-RES, > 100 µM (inactive); in the test with A549 it was 31.3 µM (inactive).
Consider `COC(=O)c1c(O)ccc2c1c1cc3ccccc3c(O)c1n2Cc1ccccc1Cl`, for which the GI50 in the test on HOP-62 is 26.1 µM (inactive); in the test with NCI-H23, 18.4 µM (inactive); in the test with KM12, 19.3 µM (inactive); in the test on Hs-578T it was 27.1 µM (inactive); in the test on SF-295, 18.8 µM (inactive); with SK-MEL-5, 19.1 µM (inactive). The GI50 in the test with NCI-H522 was 8.26 µM (inactive); in the test with CCRF-CEM, 34.7 µM (inactive); with PC-3, 30 µM (inactive); with TK-10 it was 37.2 µM (inactive); in the test with RXF 393 it was 23 µM (inactive); in the test on OVCAR-5 it was 34.9 µM (inactive). Also, the GI50 with DU-145 was 31.3 µM (inactive); in the test on U-251, 31.4 µM (inactive); in the test on M14 it was 23.4 µM (inactive); in the test with SK-MEL-28 it was 14.5 µM (inactive); with NCI/ADR-RES, 21.8 µM (inactive); in the test with A549, 23.5 µM (inactive).
On to `COCN(CCC1=CCCCC1)C(=O)OC`, for which the GI50 in the test with HOP-62 was > 100 µM (inactive); with NCI-H23 it was 51.6 µM (inactive); in the test on KM12, > 100 µM (inactive); in the test with Hs-578T, > 100 µM (inactive); in the test with SF-295, 28.2 µM (inactive); in the test with SK-MEL-5 it was 81.7 µM (inactive). Besides, the GI50 is 38.1 µM (inactive) in the test on NCI-H522; > 100 µM (inactive) in the test with PC-3; > 100 µM (inactive) with TK-10; > 100 µM (inactive) with RXF 393; > 100 µM (inactive) in the test with OVCAR-5; 49.8 µM (inactive) in the test on DU-145. For the same compound, the GI50 in the test on U-251, in the test with M14, in the test on SK-MEL-28, in the test on NCI/ADR-RES, in the test on A549 and in the test on SW-620 was > 100 µM (inactive) each time.
As to `COc1cc2c(cc1OCCCCN1CCN(CCCCOc3cc4c(cc3OC)C(=O)N3CCC[C@H]3C=N4)CC1)N=C[C@@H]1CCCN1C2=O`, the GI50 with HOP-62 was 0.0236 µM (active); in the test with NCI-H23, < 0.0241 µM (active); in the test on KM12, 0.0628 µM (active); in the test with Hs-578T, 0.0608 µM (active); in the test with SF-295, < 0.0352 µM (active); in the test on SK-MEL-5, 0.0138 µM (active). The GI50 is < 0.01 µM (active) in the test on NCI-H522; 0.0873 µM (active) in the test on PC-3; 0.0589 µM (active) in the test with TK-10; 0.0676 µM (active) with RXF 393; 0.0417 µM (active) in the test on OVCAR-5; 0.0361 µM (active) with DU-145. For the same compound, the GI50 is 0.0167 µM (active) with U-251; 0.02 µM (active) with M14; 0.0206 µM (active) in the test on SK-MEL-28; 1.94 µM (inactive) in the test on NCI/ADR-RES; 0.0923 µM (active) in the test with A549; < 0.0119 µM (active) in the test with SW-620.
For `C/C(O)=C/C(=O)c1[nH]c(C(=O)O)cc1C1CCN(Cc2ccccc2)C1=O` (stereo not given), the GI50 in the test on HOP-62 is 15.8 µM (inactive); with NCI-H23, 17.9 µM (inactive); with KM12, 29.9 µM (inactive); in the test on Hs-578T, 32.4 µM (inactive); in the test with SF-295 it was 17.9 µM (inactive); in the test on SK-MEL-5, 19.9 µM (inactive). The GI50 in the test with NCI-H522 was 23.7 µM (inactive); in the test with PC-3, 32.7 µM (inactive); with TK-10, 27.9 µM (inactive); in the test with RXF 393, 12 µM (inactive); with OVCAR-5 it was 25.2 µM (inactive); in the test with DU-145, 18.3 µM (inactive). For the same compound, the GI50 was 34.2 µM (inactive) with U-251; 15.3 µM (inactive) with M14; 23.2 µM (inactive) with SK-MEL-28; 12 µM (inactive) with NCI/ADR-RES; 26.9 µM (inactive) in the test on A549; 29.5 µM (inactive) with SW-620.
For the compound `Cc1ccc(S(=O)(=O)N2C3C=CC(C3)[C@@H]2C(Cl)(Cl)Cl)cc1` (stereo not given in full), the GI50 in the test on HOP-62 is 10.4 µM (inactive); in the test with NCI-H23 it was 27.2 µM (inactive); with KM12 it was 20.3 µM (inactive); in the test on Hs-578T it was 5.07 µM (inactive); in the test on SF-295, 13.6 µM (inactive); with SK-MEL-5, 19.3 µM (inactive). For the same compound, the GI50 was 14 µM (inactive) in the test on NCI-H522; 17 µM (inactive) in the test with CCRF-CEM; 5.06 µM (inactive) in the test with PC-3; 18.7 µM (inactive) in the test with TK-10; 0.0391 µM (active) with OVCAR-5; 10.5 µM (inactive) with DU-145. For the same compound, the GI50 in the test on LOX IMVI was 18.5 µM (inactive); in the test with U-251, 15 µM (inactive); in the test on M14 it was 14.4 µM (inactive); with SK-MEL-28, 18.2 µM (inactive); in the test with NCI/ADR-RES, 9.51 µM (inactive); in the test with A549 it was 18.7 µM (inactive). Besides, in the test on SW-620, the GI50 was 20 µM (inactive).
Consider `COC(=O)c1cc(/C=C\c2cc(OC)ccc2OC)ccc1OC`, for which the GI50 in the test on HOP-62 was 25.6 µM (inactive); in the test on NCI-H23, 43.3 µM (inactive); in the test on KM12 it was 29.2 µM (inactive); in the test on Hs-578T it was 40.4 µM (inactive); in the test with SF-295, 30.8 µM (inactive); in the test on SK-MEL-5, 17.7 µM (inactive). The GI50 in the test on NCI-H522 is 19.9 µM (inactive); in the test on CCRF-CEM, 55.1 µM (inactive); with PC-3, 26.1 µM (inactive); in the test with TK-10, 50.8 µM (inactive); with OVCAR-5 it was 39.4 µM (inactive); in the test with DU-145, 26.9 µM (inactive). The GI50 in the test with LOX IMVI was 24 µM (inactive); with U-251, 32.3 µM (inactive); in the test on M14 it was 26.1 µM (inactive); in the test on SK-MEL-28, 18.4 µM (inactive); in the test with NCI/ADR-RES, 37.3 µM (inactive); in the test on A549 it was 32.1 µM (inactive). In the test on SW-620, the GI50 was 38.9 µM (inactive).
`C/C(=N\Nc1nc2ccccc2o1)c1cc2ccccc2cn1`: the GI50 in the test on HOP-62 is 0.14 µM (active); in the test with NCI-H23, < 0.0187 µM (active); with KM12 it was 0.0346 µM (active); with Hs-578T, 0.237 µM (active); in the test with SF-295, 0.174 µM (active); in the test with SK-MEL-5, 0.0101 µM (active). The GI50 in the test on NCI-H522 was < 0.01 µM (active); with CCRF-CEM, < 0.01 µM (active); with PC-3, < 0.01 µM (active); in the test with RXF 393, 0.946 µM (active); in the test on OVCAR-5, 0.225 µM (active); in the test on DU-145 it was 0.349 µM (active). The GI50 in the test on U-251 is < 0.0215 µM (active); in the test with M14 it was < 0.01 µM (active); in the test on SK-MEL-28, 0.364 µM (active); with NCI/ADR-RES, < 0.01 µM (active); with A549 it was 0.054 µM (active); in the test with SW-620 it was < 0.01 µM (active).
In the case of `C/C=C1/CN2[C@@H](C3=C[C@@H]4[C@@H]5N(C3=O)c3ccccc3[C@@]53CCN5C/C(=C/C)[C@@H]4C[C@H]53)C[C@@]34c5ccccc5N5C(=O)CC=C([C@H]1C[C@H]23)[C@H]54` [ISOSUNGUCINE], the GI50 in the test on HOP-62 was 7.06 µM (inactive); with NCI-H23, 6.85 µM (inactive); with KM12, 5.41 µM (inactive); with Hs-578T, 6.65 µM (inactive); with SF-295 it was 7.73 µM (inactive); in the test on SK-MEL-5, 2.75 µM (inactive). Further, the GI50 is 6.9 µM (inactive) in the test with NCI-H522; 1.1 µM (active) in the test on CCRF-CEM; 2.7 µM (inactive) in the test with PC-3; 7.85 µM (inactive) with TK-10; 2.17 µM (inactive) with RXF 393; 7.76 µM (inactive) in the test on OVCAR-5. In addition, the GI50 with DU-145 was 9.91 µM (inactive); in the test on U-251 it was 2.23 µM (inactive); with M14, 1.18 µM (inactive); in the test on SK-MEL-28, 1.42 µM (inactive); with NCI/ADR-RES, 8.81 µM (inactive); with A549, 7.66 µM (inactive). Also, the GI50 in the test on SW-620 was 2.92 µM (inactive).

The values above are taken from ChEMBL document CHEMBL1201862, “PubChem BioAssay data set” (2004).
